Assay results taken from ChEMBL document CHEMBL1125723 (J Med Chem, 1991).

Columns and labels:
[1] = Ability to inhibit WI-L2 […] leukemia tumor cell growth in culture after 48 hr of its exposure.; format: functional, cell-based; settings: Homo sapiens, WIL2, 48 h
L1210 [2] = assay: Ability to inhibit MTX-resistant L1210/R81 tumor cell growth was determined.; settings: Mus musculus
Dihydrofolate reductase = target: T1, Dihydrofolate reductase (Homo sapiens, UniProt P00374)
T1 sequence (P00374 whole entry): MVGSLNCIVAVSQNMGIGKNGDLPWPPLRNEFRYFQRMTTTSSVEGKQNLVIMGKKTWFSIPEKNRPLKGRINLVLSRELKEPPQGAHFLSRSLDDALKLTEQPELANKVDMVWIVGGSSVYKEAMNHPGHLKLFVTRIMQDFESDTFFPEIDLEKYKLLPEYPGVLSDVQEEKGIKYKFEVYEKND
Description: Ability to inhibit purified Dihydrofolate reductase from human leukemic lymphoblasts was determined spectrophotometrically at 340 nM.

L1210 [3] = assay: Ability to inhibit L1210 murine leukemia tumor cell growth in culture after 48 hr of its exposure.; format: functional, cell-based; settings: Mus musculus, L1210, 48 h

Compound | IC50 [1] [nM] | IC50 (L1210 [2]) [nM] | IC50 (Dihydrofolate reductase) [nM] | IC50 (L1210 [3]) [nM]
CN(Cc1cnc2nc(N)nc(N)c2n1)c1ccc(C(=O)N[C@@H](CCC(=O)O)C(=O)O)cc1 [METHOTREXATE] | 13 | 200000 | – | –
CN(Cc1cnc2nc(N)nc(N)c2n1)c1ccc(C(=O)NC(CC(C#N)C(=O)O)C(=O)O)cc1 (stereo unspecified) | – | – | 57 | 18
Nc1nc(N)c2nc(CNc3ccc(C(=O)N[C@@H](CCC(=O)O)C(=O)O)cc3)cnc2n1 [AMINOPTERIN] | 7.1 | – | – | –
C=C(CC(NC(=O)c1ccc(N(C)Cc2cnc3nc(N)nc(N)c3n2)cc1)C(=O)O)C(=O)O (stereo unspecified) | 48 | – | 44 | 870
C=C(CC(NC(=O)c1ccc(NCc2cnc3nc(N)nc(N)c3n2)cc1)C(=O)O)C(=O)O (stereo unspecified) | 20 | – | 88 | 29
